Assay results as given in EP4741383A1, “COMPOUND AND USE THEREOF AS ANTI-CANCER DRUG” (Tyligand Bioscience (Shanghai) Limited, priority 2023, dated 2025).

system: HCT116; assay: CellTiter-Glo cell proliferation inhibition, HCT116; type: cell-based; conditions: Homo sapiens, HCT-116; HCT116 (colorectal cancer cell line), 72 hours; read-out: Example IC50 (µM) HCT116
Text: This experiment used the CellTiter-Glo® Luminescent Cell Viability Assay kit from Promega to evaluate the inhibitory activity of the disclosed compounds on the proliferation of the following cell lines: 4T1 (mouse breast cancer cell line), A20 (mouse B-cell lymphoma cell line), A2780 (human ovarian cancer cell line), AsPC-1 (pancreatic cancer cell line), B16F10 (mouse melanoma cell line), BT549 (human breast cancer cell line), CT26 (mouse colon cancer cell line), EMT6 (mouse breast cancer cell line), HCT116 (colorectal cancer cell line), Jurket (acute leukemia cell line), KP-4 (pancreatic cancer cell line), LL/2 (mouse lung cancer cell line), MCF7 (breast cancer cell line), […] NCI-H358 (lung cancer cell line), NCI-H727 (gastric cancer cell line), NCI-1944 (lung cancer cell line), Pan 04.03 (pancreatic cancer cell line), SK-BR-3 (breast cancer cell line), THP-1 (leukemia cell line), TOV21G (ovarian cancer cell line), U87MG (glioblastoma cell line), and UM-UC-a (bladder cancer cell line).
All cell lines were purchased from Nanjing Kebai Biotechnology Co., Ltd. The following materials were also used in the experiment: RPMI-1640 media (HyClone, catalog number #SH30022.01), McCoy's 5A media (Thermo Fisher, catalog number #16600-082), MCDB 105 media (Sigma, catalog number #117-500), Medium 199 (Thermo Fisher, catalog number #11150-059), MEM media (Thermo Fisher, catalog number #11095-080), DMEM media (HyClone, catalog number #SH30027.01), fetal bovine serum (FBS) (ExCell, catalog number # M4530), Sodium Pyruvate (100Mm) (Thermo Fisher, catalog number #11360-070), and MEM NEAA (100X) (Thermo Fisher). […]
Cells were cultured according to the instructions provided by the cell supplier (Nanjing Kebai Biotechnology Co., Ltd.). […] Suspension or adherent cells were collected, and cell viability was determined using the trypan blue exclusion method, ensuring that cell viability was above 90%. […]

IC50	SMILES
0.111 µM	O=C(Nc1ccc(-c2csc(CO)c2)cc1)C(=O)Nc1ccc(-c2cc3cc(F)c(-c4nnn[nH]4)cc3n2C2CCC2)cc1 [Example 1]
0.078 µM	CC1(n2c(-c3ccc(NC(=O)C(=O)Nc4ccc(N5CCC6(CCOC6)CC5)cc4)cc3)cc3cc(F)c(-c4nnn[nH]4)cc32)CCC1 [Example 68]
0.044 µM	O=C(Nc1ccc(-c2cc3cc(F)c(-c4nnn[nH]4)cc3n2C2CCC2)cc1)C(=O)Nc1ccc(N2CCC3(CCC(O)C3)CC2)cc1 (stereo not drawn) [Example 100]
